# Test results reported in patent publication US12281122B1, “PI3K inhibitors” (Cogent Biosciences, Inc., priority 2023, dated 2025).
# Columns and labels:
# [1] = system: SKBR3 (PI3Kα-Wild Type) cell line; assay: HTRF phospho-AKT(S473) cell assay in SKBR3 cells; format: cell-based, human; conditions: Homo sapiens, SK-BR-3, 2 hours compound incubation, PDGF-BB stimulated
# Description: (§1) Compounds in the present disclosure were tested in a cell based HTRF phospho-AKT(S473) (CisBio/Revvity) assay in human breast cancer cell lines as a measurement of PIK3CA activity through measuring AKT, a downstream effector. The activity of mutant PI3Kα-H1047R and PI3Kα-Wild Type was measured in the T47D (PI3Kα-H1047R) and SKBR3 (PI3Kα-Wild Type) cell lines, respectively. T47D cells were plated at 20,000 cells per well in 50 μL in RPMI medium supplemented with 10% FBS and 0.2 units/mL insulin, in 384 well plates. SKBR3 cells were plated at 25,000 cells per well in 50 μL in McCoy's 5A medium supplemented with 10% FBS, in 384 well plates. Cells were plated using a Combi Multidrop reagent dispenser (ThermoFisher), and placed in 5% CO2, 37° C. incubator overnight to adhere.
# (§2) The next day, cells were treated with either compounds or vehicle (DMSO) in a 12-fold dose response curve of 1:3 dilutions, with 5 μM and 10 μM as the top concentrations for the T47D and SKBR3 cell lines, respectively. Compound treatment was facilitated via the D300e digital dispenser (Tecan), with a maximum DMSO concentration of 0.5%. Following compound addition, cell plates were incubated for 2 hours in 5% CO2, 37° C. incubator. The SKBR3 cells were stimulated and treated with 70 ng/ml PDGF-BB ligand (ThermoFisher) for the remaining 15 minutes of the incubation. Following compound incubation, compound and media was aspirated from the cells and 25 μL of supplemented lysis buffer was added per well, and incubated for 45 minutes at room temperature, shaking at 600 rpm. Next, 16 μL of cell lysate was added to a 384 well low volume ProxyPlate (Perkin Elmer/Revvity) mixed with 4 μL of HTRF antibodies (1:1 Eu Cryptate+d2 Cryptate). HTRF supplemented lysis buffer and antibody reagents were used from the phosphor-AKT(S473) HTRF assay kit (CisBio/Revvity), following manufacturers protocol recommendations. Plates were sealed and incubated at 4° C. overnight.
# (§3) The following day, plates were centrifuged for 1 minute at 1000 rpm, and read on a PHERAstar plate reader. IC50 values were calculated using Spotfire software.
# [2] = system: T47D (PI3Kα-H1047R) cell line; assay: HTRF phospho-AKT(S473) cell assay in T47D cells; format: cell-based, human; conditions: Homo sapiens, 2 hours compound incubation
# Description: as §1, §2, §3
# [3] = HTRF phospho-AKT(S473), SKBR3 (PI3Kα-Wild Type) cells
# [4] = HTRF phospho-AKT(S473), T47D (PI3Kα-H1047R) cells
# [5] = SKBR3 (PI3Kα-Wild Type) cells, HTRF phospho-AKT(S473)
# [6] = T47D (PI3Kα-H1047R) cells, HTRF phospho-AKT(S473)
SMILES,"IC50 [1, 3]","IC50 [2, 4]","IC50 [1, 5]","IC50 [2, 6]",further results
"Cc1cc([C@@H](C)Nc2ccc(Cl)nc2C(=O)NS(C)(=O)=O)c2nc(-c3cnn(C)c3)n(C)c(=O)c2c1 [Compound 288, (R)-6-chloro-3-((1-(3,6-dimethyl-2-(1-methyl-1H-pyrazol-4-yl)-4-oxo-3,4-dihydroquinazolin-8-yl)ethyl)amino)-N-(methylsulfonyl) picolinamide]",–,–,1000 to 5000 nM,< 250 nM,–
"Cc1cnc(-c2ccc(-c3nc4c([C@@H](C)Nc5ccc(Cl)nc5C(=O)NS(C)(=O)=O)cc(C)cc4c(=O)n3C)cn2)nc1 [Compound 851, (R)-6-chloro-3-((1-(3,6-dimethyl-2-(6-(5-methylpyrimidin-2-yl)pyridin-3-yl)-4-oxo-3,4-dihydroquinazolin-8-yl)ethyl)amino)-N-(methylsulfonyl) picolinamide]",–,–,–,–,"IC50 ([1]; SKBR3 (PI3Kα-Wild Type) cell line, phospho-AKT(S473) HTRF): 1000 to 5000 nM; IC50 ([2]; T47D (PI3Kα-H1047R) cell line, phospho-AKT(S473) HTRF): 250 to 500 nM"
"Cc1cc([C@@H](C)Nc2ccc(Cl)nc2C(=O)NS(C)(=O)=O)c2nc(N3C[C@@H]4C(c5cnc(C(F)F)nc5)[C@@H]4C3)n(C)c(=O)c2c1 (stereo partly drawn) [Compound 536, 6-chloro-3-(((1R)-1-(2-((1R,5S)-6-(2-(difluoromethyl)pyrimidin-5-yl)-3-azabicyclo[3.1.0]hexan-3-yl)-3,6-dimethyl-4-oxo-3,4-dihydroquinazolin-8-yl)ethyl)amino)-N-(methylsulfonyl) picolinamide]",1000 to 5000 nM,< 250 nM,–,–,–
"Cc1cc([C@@H](C)Nc2ccc(Cl)nc2C(=O)NS(C)(=O)=O)c2nc(N3CCC(c4nnc(C5CCC5)o4)CC3)n(C)c(=O)c2c1 [Compound 629, (R)-6-chloro-3-((1-(2-(4-(5-cyclobutyl-1,3,4-oxadiazol-2-yl)piperidin-1-yl)-3,6-dimethyl-4-oxo-3,4-dihydroquinazolin-8-yl)ethyl)amino)-N-(methylsulfonyl) picolinamide]",1000 to 5000 nM,< 250 nM,–,–,–
"Cc1cc([C@@H](C)Nc2ccc(Cl)nc2C(=O)NS(=O)(=O)[C@H]2C[C@@H](O)C2)c2nc(N3Cc4ccc(F)cc4C3)n(C)c(=O)c2c1 (relative stereo) [Compound 337, 6-chloro-3-(((R)-1-(2-(5-fluoroisoindolin-2-yl)-3,6-dimethyl-4-oxo-3,4-dihydroquinazolin-8-yl)ethyl)amino)-N-(((1S*,3S*)-3-hydroxycyclobutyl)sulfonyl)picolinamide]",–,–,1000 to 5000 nM,< 250 nM,–
"Cc1cc([C@@H](C)Nc2ccc(Cl)nc2C(=O)NS(C)(=O)=O)c2nc(N3CCN(c4nc(C)ncc4Cl)CC3)n(C)c(=O)c2c1 [Compound 727, (R)-6-chloro-3-((1-(2-(4-(5-chloro-2-methylpyrimidin-4-yl)piperazin-1-yl)-3,6-dimethyl-4-oxo-3,4-dihydroquinazolin-8-yl)ethyl)amino)-N-(methylsulfonyl) picolinamide]",1000 to 5000 nM,250 to 500 nM,–,–,–
"Cc1cc([C@@H](C)Nc2ccc(Cl)nc2C(=O)NS(C)(=O)=O)c2nc(C3CCN(c4ccc(C#N)nc4)CC3)n(C)c(=O)c2c1 [Compound 180, (R)-6-chloro-3-((1-(2-(1-(6-cyanopyridin-3-yl)piperidin-4-yl)-3,6-dimethyl-4-oxo-3,4-dihydroquinazolin-8-yl)ethyl)amino)-N-(methylsulfonyl) picolinamide]",–,–,1000 to 5000 nM,< 250 nM,–
"Cc1cnc(C2[C@H]3CN(c4nc5c([C@@H](C)Nc6ccc(Cl)nc6C(=O)NS(C)(=O)=O)cc(C)cc5c(=O)n4C)C[C@@H]23)nc1 (stereo partly drawn) [Compound 515, 6-chloro-3-(((1R)-1-(3,6-dimethyl-2-((1R,5S)-6-(5-methylpyrimidin-2-yl)-3-azabicyclo[3.1.0]hexan-3-yl)-4-oxo-3,4-dihydroquinazolin-8-yl)ethyl)amino)-N-(methylsulfonyl) picolinamide]",1000 to 5000 nM,< 250 nM,–,–,–
"COc1nn(C)cc1[C@H]1[C@@H]2CN(c3nc4c([C@@H](C)Nc5ccc(Cl)nc5C(=O)NS(C)(=O)=O)cc(C)cc4c(=O)n3C)C[C@@H]21 [Compound 440, 6-chloro-3-(((R)-1-(2-((1R,5S,6S)-6-(3-methoxy-1-methyl-1H-pyrazol-4-yl)-3-azabicyclo[3.1.0]hexan-3-yl)-3,6-dimethyl-4-oxo-3,4-dihydroquinazolin-8-yl)ethyl)amino)-N-(methylsulfonyl) picolinamide]",1000 to 5000 nM,< 250 nM,–,–,–
"Cc1cc([C@@H](C)Nc2ccc(Cl)nc2C(=O)NS(C)(=O)=O)c2nc(N3CCc4nn(CC5COC5)cc4C3)n(C)c(=O)c2c1 [Compound 289, (R)-6-chloro-3-((1-(3,6-dimethyl-2-(2-(oxetan-3-ylmethyl)-2,4,6,7-tetrahydro-5H-pyrazolo[4,3-c]pyridin-5-yl)-4-oxo-3,4-dihydroquinazolin-8-yl)ethyl)amino)-N-(methylsulfonyl) picolinamide]",–,–,≥ 5000 nM,< 250 nM,–

# Now from value to compound, other results behind:
"IC50 [1, 3]","IC50 [2, 4]","IC50 [1, 5]","IC50 [2, 6]",SMILES,further results
1000 to 5000 nM,< 250 nM,–,–,"Cc1cc([C@@H](C)Nc2ccc(Cl)nc2C(=O)NS(C)(=O)=O)c2nc(N3CCC(c4cc(C)on4)CC3)n(C)c(=O)c2c1 [Compound 571, (R)-6-chloro-3-((1-(3,6-dimethyl-2-(4-(5-methylisoxazol-3-yl)piperidin-1-yl)-4-oxo-3,4-dihydroquinazolin-8-yl)ethyl)amino)-N-(methylsulfonyl) picolinamide]",–
–,–,≥ 5000 nM,250 to 500 nM,"Cc1cc([C@@H](C)Nc2ccc(Cl)nc2C(=O)NS(C)(=O)=O)c2nc(N3CCC(n4cc(-c5ccccc5)cn4)CC3)n(C)c(=O)c2c1 [Compound 235, (R)-6-chloro-3-((1-(3,6-dimethyl-4-oxo-2-(4-(4-phenyl-1H-pyrazol-1-yl)piperidin-1-yl)-3,4-dihydroquinazolin-8-yl)ethyl)amino)-N-(methylsulfonyl) picolinamide]",–
1000 to 5000 nM,< 250 nM,–,–,"Cc1cc([C@@H](C)Nc2ccc(Cl)nc2C(=O)NS(C)(=O)=O)c2nc(N3Cc4ccc(C)nc4C3)n(C)c(=O)c2c1 [Compound 514, (R)-6-chloro-3-((1-(3,6-dimethyl-2-(2-methyl-5,7-dihydro-6H-pyrrolo[3,4-b]pyridin-6-yl)-4-oxo-3,4-dihydroquinazolin-8-yl)ethyl)amino)-N-(methylsulfonyl) picolinamide]",–
≥ 5000 nM,250 to 500 nM,–,–,"Cc1cc([C@@H](C)Nc2ccc(Cl)nc2C(=O)NS(C)(=O)=O)c2nc(N3CC[C@H](Nc4ncccn4)C3)n(C)c(=O)c2c1 [Compound 540, 6-chloro-3-(((R)-1-(3,6-dimethyl-4-oxo-2-((S)-3-(pyrimidin-2-ylamino)pyrrolidin-1-yl)-3,4-dihydroquinazolin-8-yl)ethyl)amino)-N-(methylsulfonyl) picolinamide]",–
1000 to 5000 nM,< 250 nM,–,–,"Cc1cc([C@@H](C)Nc2ccc(Cl)nc2C(=O)NS(C)(=O)=O)c2nc(N3CCN(c4cncc(C)n4)CC3)n(C)c(=O)c2c1 [Compound 529, (R)-6-chloro-3-((1-(3,6-dimethyl-2-(4-(6-methylpyrazin-2-yl)piperazin-1-yl)-4-oxo-3,4-dihydroquinazolin-8-yl)ethyl)amino)-N-(methylsulfonyl) picolinamide]",–
–,–,1000 to 5000 nM,< 250 nM,"Cc1cc([C@@H](C)Nc2ccc(Cl)nc2C(=O)NS(C)(=O)=O)c2nc(N3CC[C@@H](Oc4cccnc4)C3)n(C)c(=O)c2c1 [Compound 345, 6-chloro-3-(((R)-1-(3,6-dimethyl-4-oxo-2-((R)-3-(pyridin-3-yloxy)pyrrolidin-1-yl)-3,4-dihydroquinazolin-8-yl)ethyl)amino)-N-(methylsulfonyl) picolinamide]",–
–,–,1000 to 5000 nM,< 250 nM,"Cc1cc([C@@H](C)Nc2ccc(Cl)nc2C(=O)NS(C)(=O)=O)c2nc(N3CC[C@H](Oc4ccnn4C)C3)n(C)c(=O)c2c1 [Compound 351, 6-chloro-3-(((R)-1-(3,6-dimethyl-2-((S)-3-((1-methyl-1H-pyrazol-5-yl)oxy)pyrrolidin-1-yl)-4-oxo-3,4-dihydroquinazolin-8-yl)ethyl)amino)-N-(methylsulfonyl) picolinamide]",–
